Patent publication US20240150358A1, “PURINES AND METHODS OF THEIR USE” (Kineta, Inc., priority 2020, published 2024)
Where two headings read alike, the source gives them in different places.

Molecular target: full-length human PIKFYVE (Homo sapiens (Human), UniProt Q9Y2I7, L932S/Q1183K/Q995L/S1033A/S696N/T998S)
Experiment: PIKfyve biochemical assay (ADP-Glo Kinase assay, Carna Biosciences)
Method: (§1) PIKfyve Biochemical Assay. The biochemical PIKFyve inhibition assays were run by Carna Biosciences according to proprietary methodology based on the Promega ADP-Glo™ Kinase assay. […] GST-PIKFYVE was purified by using glutathione sepharose chromatography and used in an ADP-Glo™ Kinase assay (Promega). Reactions were set up by adding the test compound solution, substrate solution, ATP solution and kinase solution, each at 4× final concentrations. Reactions were prepared with assay buffer (50 mM MOPS, 1 mM DTT, pH7.2), mixed, and incubated in black 384 well polystyrene plates for 1 hour at room temperature. ADPGlo™ reagent was then added for 40 minutes, followed by kinase detection reagent for an additional 40 minutes. The kinase activity was evaluated by detecting relative light units on a luminescence plate reader. Samples were run in duplicate from 10 μM to 3 nM. […] IC50 values were calculated from concentration vs % inhibition curves by fitting to a four-parameter logistic curve.
as §1, with “The” for “PIKfyve Biochemical Assay. The”, “ADP-Glo™” for “ADPGlo™”, “uM” for “μM”, “curve. […]” for “curve.”

[1] = values plotted in FIG. 7, read-out: PIKFYVE Biochemistry (IC50)
[2] = ADP-Glo, GST-PIKFYVE, 10 μM to 3 nM, read-out: hPIKfyve IC50

Chain of full-length human PIKFYVE (Q9Y2I7 whole entry S696N/L932S/Q995L/T998S/S1033A/Q1183K): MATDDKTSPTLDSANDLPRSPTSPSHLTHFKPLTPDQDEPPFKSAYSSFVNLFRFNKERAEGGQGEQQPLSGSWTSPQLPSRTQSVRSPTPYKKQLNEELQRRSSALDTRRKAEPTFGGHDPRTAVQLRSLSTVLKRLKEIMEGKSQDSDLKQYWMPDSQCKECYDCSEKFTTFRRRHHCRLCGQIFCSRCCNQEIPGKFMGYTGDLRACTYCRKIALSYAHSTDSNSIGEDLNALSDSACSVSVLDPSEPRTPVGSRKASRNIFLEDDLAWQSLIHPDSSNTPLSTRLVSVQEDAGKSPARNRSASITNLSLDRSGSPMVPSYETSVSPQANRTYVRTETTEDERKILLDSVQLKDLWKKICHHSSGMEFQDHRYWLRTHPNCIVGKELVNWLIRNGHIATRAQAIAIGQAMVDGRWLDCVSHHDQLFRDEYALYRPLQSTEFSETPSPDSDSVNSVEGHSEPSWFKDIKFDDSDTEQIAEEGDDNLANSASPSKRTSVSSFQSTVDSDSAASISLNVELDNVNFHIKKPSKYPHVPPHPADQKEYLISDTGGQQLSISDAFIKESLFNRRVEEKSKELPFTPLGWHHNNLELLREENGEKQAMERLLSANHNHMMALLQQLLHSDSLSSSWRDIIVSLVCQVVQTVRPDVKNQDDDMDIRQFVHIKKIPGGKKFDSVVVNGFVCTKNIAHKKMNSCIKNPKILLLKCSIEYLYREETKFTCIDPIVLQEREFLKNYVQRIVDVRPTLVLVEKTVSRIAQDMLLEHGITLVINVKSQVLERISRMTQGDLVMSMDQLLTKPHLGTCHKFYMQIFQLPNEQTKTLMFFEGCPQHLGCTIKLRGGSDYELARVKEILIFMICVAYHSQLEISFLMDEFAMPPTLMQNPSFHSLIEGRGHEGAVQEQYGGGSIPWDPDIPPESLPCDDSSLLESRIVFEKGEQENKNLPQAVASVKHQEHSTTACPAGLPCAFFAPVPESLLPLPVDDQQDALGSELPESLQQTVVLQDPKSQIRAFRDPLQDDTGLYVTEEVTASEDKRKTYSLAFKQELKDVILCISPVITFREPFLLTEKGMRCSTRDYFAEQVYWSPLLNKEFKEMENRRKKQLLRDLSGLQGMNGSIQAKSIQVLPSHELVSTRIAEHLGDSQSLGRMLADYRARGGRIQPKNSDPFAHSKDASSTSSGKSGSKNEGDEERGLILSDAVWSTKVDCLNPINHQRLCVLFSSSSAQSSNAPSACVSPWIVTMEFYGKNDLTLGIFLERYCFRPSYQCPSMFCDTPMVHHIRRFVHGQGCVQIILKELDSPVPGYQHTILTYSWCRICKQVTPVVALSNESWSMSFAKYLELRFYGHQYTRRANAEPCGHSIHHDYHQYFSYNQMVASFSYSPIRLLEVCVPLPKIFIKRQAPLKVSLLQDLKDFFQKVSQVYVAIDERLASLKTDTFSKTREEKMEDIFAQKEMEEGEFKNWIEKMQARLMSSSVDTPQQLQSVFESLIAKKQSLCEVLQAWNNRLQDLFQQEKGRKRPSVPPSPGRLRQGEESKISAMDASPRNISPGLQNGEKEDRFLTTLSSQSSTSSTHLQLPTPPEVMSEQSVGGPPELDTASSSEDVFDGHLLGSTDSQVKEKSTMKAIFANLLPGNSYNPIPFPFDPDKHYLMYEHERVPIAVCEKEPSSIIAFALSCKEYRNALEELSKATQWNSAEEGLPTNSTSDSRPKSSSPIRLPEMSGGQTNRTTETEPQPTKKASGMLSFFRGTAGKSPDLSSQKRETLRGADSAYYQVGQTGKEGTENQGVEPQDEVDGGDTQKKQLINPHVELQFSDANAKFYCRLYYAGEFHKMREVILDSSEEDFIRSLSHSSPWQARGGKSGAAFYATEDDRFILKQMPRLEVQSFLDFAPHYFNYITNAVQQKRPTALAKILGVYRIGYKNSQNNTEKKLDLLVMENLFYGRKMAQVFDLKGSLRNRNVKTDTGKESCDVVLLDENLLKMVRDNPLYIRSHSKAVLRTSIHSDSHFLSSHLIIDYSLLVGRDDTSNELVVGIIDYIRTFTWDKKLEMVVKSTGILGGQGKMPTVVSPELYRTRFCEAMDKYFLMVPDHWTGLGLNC

| SMILES | IC50 [2] [µM] | IC50 [1] [µM] |
| --- | --- | --- |
| O=c1ccn(Cc2nc(N3CCOCC3)cc(-n3nccc3-c3ccccc3)n2)cc1 | – | > 10 |
| Cn1c(-c2ccncc2)nc2c(N3CCOCC3)nc(-c3cccc(C4CCN(C(=O)OC(C)(C)C)CC4)n3)nc21 [Compound 4] | 0.1 to 1 | – |
| c1ccc(-c2nc(-c3nc(N4CCOCC4)c4nc(-c5ccncc5)[nH]c4n3)no2)cc1 [Compound 109, 4-(2-(5-phenyl-1,2,4-oxadiazol-3-yl)-8-(pyridin-4-yl)-9H-purin-6-yl)morpholine] | 0.01 to 0.1 | – |
| Cn1c(-c2ccncc2)nc2c(N3CCOCC3)nc(-c3ccnn3C3CCCN(C(=O)OC(C)(C)C)C3)nc21 (stereo not shown) [Compound 42] | 0.1 to 1 | – |
| c1ccc(-c2nc(-c3cc(N4CCOCC4)nc(OCc4ccncc4)n3)no2)cc1 | – | > 10 |
| Cn1c(-c2ccncc2)nc2c(N3CCOCC3)nc(N3CCC(F)(F)C3)nc21 [Compound 101, 4-(2-(3,3-difluoropyrrolidin-1-yl)-9-methyl-8-(pyridin-4-yl)-9H-purin-6-yl)morpholine] | 0.01 to 0.1 | – |
| Cn1c(C2=CCOCC2)nc2c(N3CCOCC3)nc(-n3ccc(-c4cccc(C#N)c4)n3)nc21 [Compound 36, 3-{1-[8-(3,6-dihydro-2H-pyran-4-yl)-9-methyl-6-(morpholin-4-yl)-9H-purin-2-yl]-1H-pyrazol-3-yl}benzonitrile] | 1 to 10 | – |
| c1ccc(-c2nccc(-c3nc(N4CCOCC4)c4sc(-c5ccncc5)nc4n3)n2)cc1 [Compound 125] | 0.1 to 1 | – |
| Cn1c(C2CNC2)nc2c(N3CCOCC3)nc(-n3ccc(-c4ccccc4)n3)nc21 [Compound 83, 4-(8-(azetidin-3-yl)-9-methyl-2-(3-phenyl-1H-pyrazol-1-yl)-9H-purin-6-yl)morpholine] | 0.01 to 0.1 | – |
| Cn1c(C2CCOCC2)nc2c(N3CCOCC3)nc(-n3ccc(-c4ccccc4)n3)nc21 [Compound 12] | 0.1 to 1 | – |
| Cn1c(C2CCNC2)nc2c(N3CCOCC3)nc(-n3ccc(-c4ccccc4)n3)nc21 (stereo not shown) [Compound 90, 4-(9-Methyl-2-(3-phenyl-1H-pyrazol-1-yl)-8-(pyrrolidin-3-yl)-9H-purin-6-yl)morpholine] | 0.01 to 0.1 | – |
| Cn1c(-c2ccncc2)nc2c(N3CCOCC3)nc(-n3ccc(C4CC5(C4)CN(C(=O)OC(C)(C)C)C5)n3)nc21 [Compound 34] | 0.1 to 1 | – |
| Cn1c(C2CCNCC2)nc2c(N3CCOCC3)nc(-c3ccc4c(c3)OCCO4)nc21 [Compound 113, 4-(2-(2,3-dihydrobenzo[b][1,4]dioxin-6-yl)-9-methyl-8-(piperidin-4-yl)-9H-purin-6-yl)morpholine] | < 0.01 | – |
| Cn1c(-c2ccncc2)nc2c(N3CCOCC3)nc(-c3noc(C4CCCN(C(=O)OC(C)(C)C)C4)n3)nc21 (stereo not shown) [Compound 33, tert-butyl 3-{3-[9-methyl-6-(morpholin-4-yl)-8-(pyridin-4-yl)-9H-purin-2-yl]-1,2,4-oxadiazol-5-yl}piperidine-1-carboxylate] | 0.1 to 1 | – |
| Cn1c(C2CCOCC2)nc2c(N3CCOCC3)nc(-n3ccc(-c4cncnc4)n3)nc21 [Compound 20] | 1 to 10 | – |
| O=c1c(CCOc2cccnc2)cc2ncncc2n1-c1ccccc1 | – | > 10 |
| Cn1c(-c2ccncc2)nc2c(N3CCOCC3)nc(-n3nc(C4CCCCC4)[nH]c3=O)nc21 [Compound 50, 3-cyclohexyl-1-[9-methyl-6-(morpholin-4-yl)-8-(pyridin-4-yl)-9H-purin-2-yl]-4,5-dihydro-1H-1,2,4-triazol-5-one] | 0.1 to 1 | – |
| Cn1c(C2CN(C(=O)OC(C)(C)C)C2)nc2c(N3CCOCC3)nc(-n3ccc(-c4ccccc4)n3)nc21 [Compound 13, tert-butyl 3-(9-methyl-6-morpholino-2-(3-phenyl-1H-pyrazol-1-yl)-9H-purin-8-yl)azetidine-1-carboxylate] | 0.01 to 0.1 | – |
| Cn1c(-c2ccncc2)nc2c(N3CCOCC3)nc(-n3ccc(C(F)(F)F)n3)nc21 [Compound 100, 4-(9-methyl-8-(pyridin-4-yl)-2-(3-(trifluoromethyl)-1H-pyrazol-1-yl)-9H-purin-6-yl)morpholine] | < 0.01 | – |
| Cn1c(-c2ccncc2)nc2c(N3CCOCC3)nc(-n3ccc(-c4cccnc4)n3)nc21 [Compound 7, 9-methyl-6-(morpholin-4-yl)-2-[3-(pyridin-3-yl)-1H-pyrazol-1-yl]-8-(pyridin-4-yl)-9H-purine] | 0.01 to 0.1 | – |
| CN1CC(c2nc3c(N4CCOCC4)nc(-n4ccc(-c5ccccc5)n4)nc3n2C)C1 [Compound 81, 4-(9-methyl-8-(1-methylazetidin-3-yl)-2-(3-phenyl-1H-pyrazol-1-yl)-9H-purin-6-yl)morpholine] | 0.1 to 1 | – |
| Cn1c(-c2ccncc2)nc2c(N3CCOCC3)nc(-n3cc(-c4ccncc4)cn3)nc21 [Compound 93, 4-(9-methyl-8-(pyridin-4-yl)-2-(4-(pyridin-4-yl)-1H-pyrazol-1-yl)-9H-purin-6-yl)morpholine] | 0.01 to 0.1 | – |
| Cn1c(-c2ccncc2)nc2c(N3CCOCC3)nc(-n3ccc(CC4CNC4)n3)nc21 [Compound 80, 4-(2-(3-(azetidin-3-ylmethyl)-1H-pyrazol-1-yl)-9-methyl-8-(pyridin-4-yl)-9H-purin-6-yl)morpholine] | 0.1 to 1 | – |

Continued, in another order:

| IC50 [2] [µM] | SMILES | IC50 [1] [µM] |
| --- | --- | --- |
| 0.01 to 0.1 | Cn1c(-c2ccncc2)nc2c(N3CCOCC3)nc(-n3ccc(C4CCNCC4)n3)nc21 [Compound 21] | – |
| 1 to 10 | Cn1c(C2CCOCC2)nc2c(N3CCOCC3)nc(-n3ccc(C4CCCNC4)n3)nc21 (stereo not shown) [Compound 16] | – |
| 0.01 to 0.1 | Cn1c(-c2ccncc2)nc2c(N3CCOCC3)nc(-n3ccc(CC4CN(C(=O)OC(C)(C)C)C4)n3)nc21 [Compound 84, tert-butyl 3-((1-(9-methyl-6-morpholino-8-(pyridin-4-yl)-9H-purin-2-yl)-1H-pyrazol-3-yl)methyl)azetidine-1-carboxylate] | – |
| 0.1 to 1 | Cn1c(-c2ccncc2)nc2c(N3CCOCC3)nc(-c3noc(C4CCCNC4)n3)nc21 (stereo not shown) [Compound 31] | – |
| 0.01 to 0.1 | Cn1c(-c2ccncc2)nc2c(N3CCOCC3)nc(-c3ccc4c(c3)OCO4)nc21 [Compound 99, 4-(2-(benzo[d][1,3]dioxol-5-yl)-9-methyl-8-(pyridin-4-yl)-9H-purin-6-yl)morpholine] | – |
| 0.01 to 0.1 | Cn1c(C2=CCOCC2)nc2c(N3CCOCC3)nc(-n3ccc(-c4cccnc4)n3)nc21 [Compound 85, 4-(8-(3,6-dihydro-2H-pyran-4-yl)-9-methyl-2-(3-(pyridin-3-yl)-1H-pyrazol-1-yl)-9H-purin-6-yl)morpholine] | – |
| 0.01 to 0.1 | CCn1c(-c2ccncc2)nc2c(N3CCOCC3)nc(-n3ccc(-c4ccccc4)n3)nc21 [Compound 5] | – |
| < 0.01 | CN1CC(c2ccn(-c3nc(N4CCOCC4)c4nc(-c5ccncc5)n(C)c4n3)n2)CCC1=O (stereo not shown) [Compound 88, 1-methyl-5-(1-(9-methyl-6-morpholino-8-(pyridin-4-yl)-9H-purin-2-yl)-1H-pyrazol-3-yl)piperidin-2-one] | – |
| 0.1 to 1 | Cn1c(C2CCOCC2)nc2c(N3CCOCC3)nc(-c3noc(-c4ccccc4)n3)nc21 [Compound 89, 4-(9-methyl-2-(5-phenyl-1,2,4-oxadiazol-3-yl)-8-(tetrahydro-2H-pyran-4-yl)-9H-purin-6-yl)morpholine] | – |
| 0.1 to 1 | Cn1c(-c2ccncc2)nc2c(N3CCOCC3)nc(-c3cccc4c3OCCO4)nc21 [Compound 44] | – |
| < 0.01 | Cn1c(-c2ccncc2)nc2c(N3CCOCC3)nc(-c3ccc4c(c3)NCCC4)nc21 [Compound 114, 4-(9-methyl-8-(pyridin-4-yl)-2-(1,2,3,4-tetrahydroquinolin-7-yl)-9H-purin-6-yl)morpholine] | – |
